Assay results from patent US8198273B2, “Compounds and methods for kinase modulation, and indications therefor” (Plexxikon Inc., priority 2009, dated 2012).

How the values were obtained:
[1] = tested on: SKMEL2 melanoma cells (Ras mutation); test: SKMEL2 cell growth inhibition (ATPlite); type: cell-based; conditions: Homo sapiens, SK-MEL-2, 72 h; SKMEL2, 3 days incubation
Outline: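 SKMEL2 cells seeded at 2,000 per well overnight, then exposed to an 8-point 1:3 compound titration (top 10 μM final) for 3 days at 37 °C. ATPlite luminescence used as a measure of cell number to derive IC50.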

CYP3A4(BFC) = CYP3A4(BFC) (Homo sapiens, UniProt P08684); test: CYP3A4(BFC) inhibition (fluorescent substrate); type: in vitro ADME; conditions: read-out: Cyp IC50 3A4(BFC)
Outline: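 Inhibition was followed as loss of fluorescent metabolite from a known substrate, with compound in co-factor mix as a 10-point 1:1 serial dilution (100 mM DMSO stock).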

CYP2C9 = CYP2C9 (Homo sapiens, UniProt P11712); test: CYP2C9 inhibition (fluorescent substrate); type: in vitro ADME; conditions: CYP2C9, MFC substrate; read-out: Cyp IC50 2C9
Outline: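 Human CYP activity was followed by the fluorescence of the metabolized product of a known substrate, which falls as metabolism is inhibited. Compounds from 100 mM DMSO stocks were serially diluted 1:1 over 10 points in co-factor mix and preincubated 10 min at 37 °C. IC50 was fitted from signal versus concentration.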

CYP2C9, sequence (P11712 whole entry): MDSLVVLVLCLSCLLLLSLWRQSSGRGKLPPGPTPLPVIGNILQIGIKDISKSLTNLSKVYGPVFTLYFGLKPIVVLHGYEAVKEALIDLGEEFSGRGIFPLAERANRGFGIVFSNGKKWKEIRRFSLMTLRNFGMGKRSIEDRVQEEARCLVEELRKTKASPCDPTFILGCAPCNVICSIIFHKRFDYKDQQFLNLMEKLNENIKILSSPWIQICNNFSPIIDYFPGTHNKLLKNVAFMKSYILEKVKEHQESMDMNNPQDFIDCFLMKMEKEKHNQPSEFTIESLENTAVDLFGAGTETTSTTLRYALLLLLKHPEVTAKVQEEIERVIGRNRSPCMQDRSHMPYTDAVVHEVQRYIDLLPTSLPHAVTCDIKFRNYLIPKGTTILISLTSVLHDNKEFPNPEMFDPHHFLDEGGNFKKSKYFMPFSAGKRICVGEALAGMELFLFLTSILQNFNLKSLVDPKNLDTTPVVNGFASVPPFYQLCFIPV
CYP3A4(BFC), sequence (P08684 whole entry): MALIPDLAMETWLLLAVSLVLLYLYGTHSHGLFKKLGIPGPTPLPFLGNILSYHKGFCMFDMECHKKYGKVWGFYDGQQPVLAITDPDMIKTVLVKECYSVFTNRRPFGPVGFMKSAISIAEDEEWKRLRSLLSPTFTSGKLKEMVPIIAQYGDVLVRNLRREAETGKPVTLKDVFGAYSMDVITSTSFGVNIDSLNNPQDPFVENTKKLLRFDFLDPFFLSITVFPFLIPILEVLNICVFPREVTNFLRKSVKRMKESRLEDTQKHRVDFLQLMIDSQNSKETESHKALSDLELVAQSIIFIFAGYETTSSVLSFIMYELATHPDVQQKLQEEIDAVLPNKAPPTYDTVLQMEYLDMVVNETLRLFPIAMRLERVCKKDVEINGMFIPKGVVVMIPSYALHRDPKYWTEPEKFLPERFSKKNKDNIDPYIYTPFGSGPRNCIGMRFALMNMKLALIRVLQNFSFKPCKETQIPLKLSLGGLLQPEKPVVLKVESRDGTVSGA

| SMILES | IC50 [1] [µM] | IC50 (CYP3A4(BFC)) [µM] | IC50 (CYP2C9) [µM] |
| --- | --- | --- | --- |
| N#Cc1cnc2[nH]cc(C(=O)c3c(F)ccc(NS(=O)(=O)c4c(F)cccc4F)c3F)c2c1 [P-2029, N-[3-(5-Cyano-1H-pyrrolo[2,3-b]pyridine-3-carbonyl)-2,4-difluoro-phenyl]-2,6-difluoro-benzenesulfonamide] | > 10 | > 10 | > 10 |
| CCCS(=O)(=O)Nc1ccc(F)c(C(=O)c2c[nH]c3ncc(-c4ccc(S(C)(=O)=O)cc4)cc23)c1F [P-2183, Propane-1-sulfonic acid {2,4-difluoro-3-[5-(4-methanesulfonyl-phenyl)-1H-pyrrolo[2,3-b]pyridine-3-carbonyl]-phenyl}-amide] | > 10 | > 10 | 5 to 10 |
| COc1cnc2[nH]cc(C(=O)c3c(F)ccc(NS(=O)(=O)c4ccccc4F)c3F)c2c1 [P-2009, N-[2,4-Difluoro-3-(5-methoxy-1H-pyrrolo[2,3-b]pyridine-3-carbonyl)-phenyl]-2-fluoro-benzenesulfonamide] | > 10 | > 10 | > 10 |
| CCCS(=O)(=O)Nc1cccc(C(=O)c2c[nH]c3ncc(-c4cnc(OC)nc4)cc23)c1F [P-2407, Propane-1-sulfonic acid {2-fluoro-3-[5-(2-methoxy-pyrimidin-5-yl)-1H-pyrrolo[2,3-b]pyridine-3-carbonyl]-phenyl}-amide] | < 20 | > 10 | > 10 |
| O=C(c1c(F)ccc(NS(=O)(=O)c2cc(F)ccc2F)c1F)c1c[nH]c2ncc(Cl)cc12 [P-2002, N-[3-(5-Chloro-1H-pyrrolo[2,3-b]pyridine-3-carbonyl)-2,4-difluoro-phenyl]-2,5-difluoro-benzenesulfonamide] | > 10 | > 10 | 5 to 10 |
| O=C(c1c(F)ccc(NS(=O)(=O)c2ccccc2F)c1F)c1c[nH]c2nccc(Cl)c12 [P-2017, N-[3-(4-Chloro-1H-pyrrolo[2,3-b]pyridine-3-carbonyl)-2,4-difluoro-phenyl]-2-fluoro-benzenesulfonamide] | > 10 | > 10 | > 10 |
| N#Cc1cnc2[nH]cc(C(=O)c3c(F)ccc(NS(=O)(=O)c4cccnc4)c3F)c2c1 [P-2072, Pyridine-3-sulfonic acid [3-(5-cyano-1H-pyrrolo[2,3-b]pyridine-3-carbonyl)-2,4-difluoro-phenyl]-amide] | > 10 | 5 to 10 | > 10 |
| N#Cc1cnc2[nH]cc(C(=O)c3cccc(NS(=O)(=O)c4cccc(F)c4)c3F)c2c1 [P-2053, N-[3-(5-Cyano-1H-pyrrolo[2,3-b]pyridine-3-carbonyl)-2-fluoro-phenyl]-3-fluoro-benzenesulfonamide] | > 10 | > 10 | 5 to 10 |
| CCCS(=O)(=O)Nc1ccc(F)c(C(=O)c2c[nH]c3ncc(-c4ccc(N)nc4)cc23)c1F [P-2214, Propane-1-sulfonic acid {3-[5-(6-amino-pyridin-3-yl)-1H-pyrrolo[2,3-b]pyridine-3-carbonyl]-2,4-difluoro-phenyl}-amide] | > 10 | > 10 | > 10 |
| CCCS(=O)(=O)Nc1ccc(F)c(C(=O)c2c[nH]c3ncc(-c4cnc(SC)nc4)cc23)c1F [P-2189, Propane-1-sulfonic acid {2,4-difluoro-3-[5-(2-methylsulfanyl-pyrimidin-5-yl)-1H-pyrrolo[2,3-b]pyridine-3-carbonyl]-phenyl}-amide] | < 10 | > 10 | < 5 |
| CCCS(=O)(=O)Nc1ccc(F)c(C(=O)c2c[nH]c3ncc(-c4ccc(NC(C)=O)nc4)cc23)c1F [P-2193, N-(5-{3-[2,6-Difluoro-3-(propane-1-sulfonylamino)-benzoyl]-1H-pyrrolo[2,3-b]pyridin-5-yl}-pyridin-2-yl)-acetamide] | > 10 | 5 to 10 | > 10 |
| CCCS(=O)(=O)Nc1ccc(F)c(C(=O)c2c[nH]c3ncc(-c4ccc(S(=O)(=O)NC)cc4)cc23)c1F [P-2167, 4-{3-[2,6-Difluoro-3-(propane-1-sulfonylamino)-benzoyl]-1H-pyrrolo[2,3-b]pyridin-5-yl}-N-methyl-benzenesulfonamide] | < 5 | > 10 | 5 to 10 |
| CCCS(=O)(=O)Nc1ccc(F)c(C(=O)c2c[nH]c3ncc(-c4cnn(CCN5CCOCC5)c4)cc23)c1F [P-2177, Propane-1-sulfonic acid (2,4-difluoro-3-{5-[1-(2-morpholin-4-yl-ethyl)-1H-pyrazol-4-yl]-1H-pyrrolo[2,3-b]pyridine-3-carbonyl}-phenyl)-amide] | < 10 | < 5 | < 5 |
| N#Cc1cnc2[nH]cc(C(=O)c3c(F)ccc(NS(=O)(=O)c4ccccc4)c3F)c2c1 [P-2046, N-[3-(5-Cyano-1H-pyrrolo[2,3-b]pyridine-3-carbonyl)-2,4-difluoro-phenyl]-benzenesulfonamide] | > 10 | > 10 | < 5 |
| O=C(c1c(F)ccc(NS(=O)(=O)c2cccc(F)c2)c1F)c1c[nH]c2nccc(Cl)c12 [P-2019, N-[3-(4-Chloro-1H-pyrrolo[2,3-b]pyridine-3-carbonyl)-2,4-difluoro-phenyl]-3-fluoro-benzenesulfonamide] | > 10 | 5 to 10 | > 10 |
| N#Cc1ccnc2[nH]cc(C(=O)c3c(F)ccc(NS(=O)(=O)c4c(F)cccc4F)c3F)c12 [P-2037, N-[3-(4-Cyano-1H-pyrrolo[2,3-b]pyridine-3-carbonyl)-2,4-difluoro-phenyl]-2,6-difluoro-benzenesulfonamide] | > 10 | > 10 | > 10 |
| CCCS(=O)(=O)Nc1ccc(F)c(C(=O)c2c[nH]c3ncc(-c4cn[nH]c4)cc23)c1F [P-2174, Propane-1-sulfonic acid {2,4-difluoro-3-[5-(1H-pyrazol-4-yl)-1H-pyrrolo[2,3-b]pyridine-3-carbonyl]-phenyl}-amide] | < 10 | > 10 | < 5 |
| COc1cnc2[nH]cc(C(=O)c3c(F)ccc(NS(=O)(=O)c4cc(F)ccc4F)c3F)c2c1 [P-2010, N-[2,4-Difluoro-3-(5-methoxy-1H-pyrrolo[2,3-b]pyridine-3-carbonyl)-phenyl]-2,5-difluoro-benzenesulfonamide] | > 10 | > 10 | > 10 |
| N#Cc1ccnc2[nH]cc(C(=O)c3c(F)ccc(NS(=O)(=O)c4cccc(F)c4)c3F)c12 [P-2039, N-[3-(4-Cyano-1H-pyrrolo[2,3-b]pyridine-3-carbonyl)-2,4-difluoro-phenyl]-3-fluoro-benzenesulfonamide] | > 10 | > 10 | > 10 |
| CCCS(=O)(=O)Nc1ccc(F)c(C(=O)c2c[nH]c3ncc(-c4ccc(F)nc4)cc23)c1F [P-2155, Propane-1-sulfonic acid {2,4-difluoro-3-[5-(6-fluoro-pyridin-3-yl)-1H-pyrrolo[2,3-b]pyridine-3-carbonyl]-phenyl}-amide] | < 20 | > 10 | > 10 |
| CCCS(=O)(=O)Nc1ccc(F)c(C(=O)c2c[nH]c3ncc(-c4ccc(S(=O)(=O)CC)cc4)cc23)c1F [P-2218, Propane-1-sulfonic acid {3-[5-(4-ethanesulfonyl-phenyl)-1H-pyrrolo[2,3-b]pyridine-3-carbonyl]-2,4-difluoro-phenyl}-amide] | > 10 | > 10 | > 10 |
| CCCS(=O)(=O)Nc1ccc(F)c(C(=O)c2c[nH]c3ncc(-c4ccc(OCCCN(C)C)nc4)cc23)c1F [P-2178, Propane-1-sulfonic acid (3-{5-[6-(3-dimethylamino-propoxy)-pyridin-3-yl]-1H-pyrrolo[2,3-b]pyridine-3-carbonyl}-2,4-difluoro-phenyl)-amide] | < 5 | > 10 | 5 to 10 |
| Cc1cnc2[nH]cc(C(=O)c3c(F)ccc(NS(=O)(=O)c4cc(F)ccc4F)c3F)c2c1 [P-2015, N-[2,4-Difluoro-3-(5-methyl-1H-pyrrolo[2,3-b]pyridine-3-carbonyl)-phenyl]-2,5-difluoro-benzenesulfonamide] | > 10 | > 10 | > 10 |
| CCCS(=O)(=O)Nc1ccc(F)c(C(=O)c2c[nH]c3ncc(-c4cnc(N(C)C)nc4)cc23)c1F [P-2196, Propane-1-sulfonic acid {3-[5-(2-dimethylamino-pyrimidin-5-yl)-1H-pyrrolo[2,3-b]pyridine-3-carbonyl]-2,4-difluoro-phenyl}-amide] | > 10 | < 5 | 5 to 10 |
| Cc1cnc2[nH]cc(C(=O)c3c(F)ccc(NS(=O)(=O)c4cccc(F)c4)c3F)c2c1 [P-2016, N-[2,4-Difluoro-3-(5-methyl-1H-pyrrolo[2,3-b]pyridine-3-carbonyl)-phenyl]-3-fluoro-benzenesulfonamide] | > 10 | > 10 | < 5 |
| CCCS(=O)(=O)Nc1ccc(F)c(C(=O)c2c[nH]c3ncc(-c4cncnc4)cc23)c1F [P-2162, Propane-1-sulfonic acid [2,4-difluoro-3-(5-pyrimidin-5-yl-1H-pyrrolo[2,3-b]pyridine-3-carbonyl)-phenyl]-amide] | < 10 | 5 to 10 | 5 to 10 |
| N#Cc1cnc2[nH]cc(C(=O)c3cccc(NS(=O)(=O)c4cc(F)ccc4F)c3F)c2c1 [P-2052, N-[3-(5-Cyano-1H-pyrrolo[2,3-b]pyridine-3-carbonyl)-2-fluoro-phenyl]-2,5-difluoro-benzenesulfonamide] | > 10 | 5 to 10 | < 5 |
